In ChEMBL document CHEMBL5674860, “Optimized Dual-Glo Assay to identify co-culture-induced drug vulnerabilities in 3D CRC models” (2024):

Key:
Assay type in all cases: functional, Homo sapiens
Parameters in all cases: dose or concentration left out as unconfirmed
Colon cancer organoid [1] = experiment: Optimized Dual-Glo assay to identify co-culture induced drug vulnerabilities using donated chemical probes and chemogenomics kinase set in O20 CRC organoid and F20 CAF mono and co-culture. […] Cell viability is reported both mono and co-culture models.
Colon cancer organoid [2] = experiment: Optimized Dual-Glo assay to identify co-culture induced drug vulnerabilities using donated chemical probes and chemogenomics kinase set in O14 CRC organoid and F14 CAF mono and co-culture. […] Cell viability is reported both mono and co-culture models.
Colon cancer organoid [3] = experiment: Optimized Dual-Glo assay to identify co-culture induced drug vulnerabilities using donated chemical probes and chemogenomics kinase set in O06 CRC organoid and F06 CAF mono and co-culture. […] Cell viability is reported both mono and co-culture models.
[4] = Culture type Co-Culture, Transduced with Lucferase2-P2A-EGFP lentivirus
[5] = Culture type Co-Culture, Transduced with Renilla-dsRed lentivirus
[6] = Culture type Mono-Culture, Transduced with Lucferase2-P2A-EGFP lentivirus
[7] = Culture type Mono-Culture, Transduced with Renilla-dsRed lentivirus

## COCC(=O)NC/C=C/c1ccc2ncnc(Nc3ccc(Oc4ccc(C)nc4)c(C)c3)c2c1 [CP-724714]
Colon cancer organoid [1]; [4]
  Cell Viability: 97.3561%
Colon cancer organoid [1]; [5]
  Cell Viability: 94.0282%
Colon cancer organoid [1]; [6]
  Cell Viability: 76.6577%
Colon cancer organoid [1]; [7]
  Cell Viability: 85.6537%
Colon cancer organoid [2]; [4]
  Cell Viability: 60.8642%
Colon cancer organoid [2]; [5]
  Cell Viability: 107.55%
Colon cancer organoid [2]; [6]
  Cell Viability: 48.0446%
Colon cancer organoid [2]; [7]
  Cell Viability: 87.9569%
Colon cancer organoid [3]; [4]
  Cell Viability: 64.178%
Colon cancer organoid [3]; [5]
  Cell Viability: 58.1065%
Colon cancer organoid [3]; [6]
  Cell Viability: 46.8341%
Colon cancer organoid [3]; [7]
  Cell Viability: 91.801%

## CN([C@@H]1CCc2c(CC(=O)O)c3cc(S(C)(=O)=O)ccc3n2C1)S(=O)(=O)c1ccc(F)cc1 [CRTH2-negative-control]
Colon cancer organoid [1]; [4]
  Cell Viability: 107.561%
Colon cancer organoid [1]; [5]
  Cell Viability: 126.69%
Colon cancer organoid [1]; [6]
  Cell Viability: 138.147%
Colon cancer organoid [1]; [7]
  Cell Viability: 108.987%
Colon cancer organoid [2]; [4]
  Cell Viability: 89.9276%
Colon cancer organoid [2]; [5]
  Cell Viability: 115.062%
Colon cancer organoid [2]; [6]
  Cell Viability: 117.685%
Colon cancer organoid [2]; [7]
  Cell Viability: 97.6178%
Colon cancer organoid [3]; [4]
  Cell Viability: 107.688%
Colon cancer organoid [3]; [5]
  Cell Viability: 114.368%
Colon cancer organoid [3]; [6]
  Cell Viability: 103.342%
Colon cancer organoid [3]; [7]
  Cell Viability: 104.475%

## CNC(=O)c1ccc(Nc2ncc(C(F)(F)F)c(NCc3nccnc3N(C)S(C)(=O)=O)n2)cc1 [DEFACTINIB]
Colon cancer organoid [1]; [4]
  Cell Viability: 57.0475%
Colon cancer organoid [1]; [5]
  Cell Viability: 79.7534%
Colon cancer organoid [1]; [6]
  Cell Viability: 66.5234%
Colon cancer organoid [1]; [7]
  Cell Viability: 63.7293%
Colon cancer organoid [2]; [4]
  Cell Viability: 83.442%
Colon cancer organoid [2]; [5]
  Cell Viability: 104.135%
Colon cancer organoid [2]; [6]
  Cell Viability: 42.8527%
Colon cancer organoid [2]; [7]
  Cell Viability: 104.257%
Colon cancer organoid [3]; [4]
  Cell Viability: 127.858%
Colon cancer organoid [3]; [5]
  Cell Viability: 116.047%
Colon cancer organoid [3]; [6]
  Cell Viability: 102.967%
Colon cancer organoid [3]; [7]
  Cell Viability: 60.766%

## CCN(CCO)CCCOc1ccc2c(Nc3cc(CC(=O)Nc4cccc(F)c4)[nH]n3)ncnc2c1 [DEFOSBARASERTIB]
Colon cancer organoid [1]; [4]
  Cell Viability: 5.365%
Colon cancer organoid [1]; [5]
  Cell Viability: 225.013%
Colon cancer organoid [1]; [6]
  Cell Viability: 11.3206%
Colon cancer organoid [1]; [7]
  Cell Viability: 105.29%
Colon cancer organoid [2]; [4]
  Cell Viability: 15.638%
Colon cancer organoid [2]; [5]
  Cell Viability: 174.95%
Colon cancer organoid [2]; [6]
  Cell Viability: 26.1499%
Colon cancer organoid [2]; [7]
  Cell Viability: 95.9515%
Colon cancer organoid [3]; [4]
  Cell Viability: 10.7234%
Colon cancer organoid [3]; [5]
  Cell Viability: 183.999%
Colon cancer organoid [3]; [6]
  Cell Viability: 3.3988%
Colon cancer organoid [3]; [7]
  Cell Viability: 94.753%

## Cn1c(C2(NC(=O)c3ccc4c(C5CCCC5)c(-c5ncc(Br)cn5)n(C)c4c3)CCC2)nc2ccc(/C=C/C(=O)O)cc21 [DELEOBUVIR]
Colon cancer organoid [1]; [4]
  Cell Viability: 79.9036%
Colon cancer organoid [1]; [5]
  Cell Viability: 130.288%
Colon cancer organoid [1]; [6]
  Cell Viability: 108.218%
Colon cancer organoid [1]; [7]
  Cell Viability: 110.732%
Colon cancer organoid [2]; [4]
  Cell Viability: 94.147%
Colon cancer organoid [2]; [5]
  Cell Viability: 102.969%
Colon cancer organoid [2]; [6]
  Cell Viability: 81.1663%
Colon cancer organoid [2]; [7]
  Cell Viability: 89.5103%
Colon cancer organoid [3]; [4]
  Cell Viability: 116.632%
Colon cancer organoid [3]; [5]
  Cell Viability: 84.3073%
Colon cancer organoid [3]; [6]
  Cell Viability: 123.499%
Colon cancer organoid [3]; [7]
  Cell Viability: 101.583%

## CN1CCN(Cc2ccc(Nc3ncc(Cl)c(Nc4ccccc4S(=O)(=O)N(C)C)n3)cc2)CC1 [DUBERMATINIB]
Colon cancer organoid [1]; [4]
  Cell Viability: 1.045%
Colon cancer organoid [1]; [5]
  Cell Viability: 16.1981%
Colon cancer organoid [1]; [6]
  Cell Viability: 1.218%
Colon cancer organoid [1]; [7]
  Cell Viability: 12.0094%
Colon cancer organoid [2]; [4]
  Cell Viability: 0.6117%
Colon cancer organoid [2]; [5]
  Cell Viability: 1.021%
Colon cancer organoid [2]; [6]
  Cell Viability: 1.267%
Colon cancer organoid [2]; [7]
  Cell Viability: 1.499%
Colon cancer organoid [3]; [4]
  Cell Viability: 0.5937%
Colon cancer organoid [3]; [5]
  Cell Viability: 0.7151%
Colon cancer organoid [3]; [6]
  Cell Viability: 0.6913%
Colon cancer organoid [3]; [7]
  Cell Viability: 2.891%

## Cn1cc(C2=C(c3cn(C4CCN(Cc5ccccn5)CC4)c4ccccc34)C(=O)NC2=O)c2ccccc21 [ENZASTAURIN]
Colon cancer organoid [1]; [4]
  Cell Viability: 54.9568%
Colon cancer organoid [1]; [5]
  Cell Viability: 78.6109%
Colon cancer organoid [1]; [6]
  Cell Viability: 53.3905%
Colon cancer organoid [1]; [7]
  Cell Viability: 66.2903%
Colon cancer organoid [2]; [4]
  Cell Viability: 77.4844%
Colon cancer organoid [2]; [5]
  Cell Viability: 94.2381%
Colon cancer organoid [2]; [6]
  Cell Viability: 86.5336%
Colon cancer organoid [2]; [7]
  Cell Viability: 83.0179%
Colon cancer organoid [3]; [4]
  Cell Viability: 65.6638%
Colon cancer organoid [3]; [5]
  Cell Viability: 92.7001%
Colon cancer organoid [3]; [6]
  Cell Viability: 58.602%
Colon cancer organoid [3]; [7]
  Cell Viability: 101.572%

## C[C@H](NC(=O)Nc1cc2[nH]ncc2c(CO)n1)c1ccccn1 [ERKi-NC]
Colon cancer organoid [1]; [4]
  Cell Viability: 108.541%
Colon cancer organoid [1]; [5]
  Cell Viability: 124.126%
Colon cancer organoid [1]; [6]
  Cell Viability: 136.018%
Colon cancer organoid [1]; [7]
  Cell Viability: 90.7734%
Colon cancer organoid [2]; [4]
  Cell Viability: 88.9935%
Colon cancer organoid [2]; [5]
  Cell Viability: 102.074%
Colon cancer organoid [2]; [6]
  Cell Viability: 55.928%
Colon cancer organoid [2]; [7]
  Cell Viability: 92.432%
Colon cancer organoid [3]; [4]
  Cell Viability: 88.473%
Colon cancer organoid [3]; [5]
  Cell Viability: 87.7291%
Colon cancer organoid [3]; [6]
  Cell Viability: 101.937%
Colon cancer organoid [3]; [7]
  Cell Viability: 116.172%

## C[C@@H](NC(=O)Nc1cc2[nH]ncc2c(CO)n1)c1ccccc1 [ERKi]
Colon cancer organoid [1]; [4]
  Cell Viability: 50.0756%
Colon cancer organoid [1]; [5]
  Cell Viability: 135.339%
Colon cancer organoid [1]; [6]
  Cell Viability: 64.2382%
Colon cancer organoid [1]; [7]
  Cell Viability: 68.0141%
Colon cancer organoid [2]; [4]
  Cell Viability: 33.887%
Colon cancer organoid [2]; [5]
  Cell Viability: 108.528%
Colon cancer organoid [2]; [6]
  Cell Viability: 11.5857%
Colon cancer organoid [2]; [7]
  Cell Viability: 66.9878%
Colon cancer organoid [3]; [4]
  Cell Viability: 117.766%
Colon cancer organoid [3]; [5]
  Cell Viability: 104.277%
Colon cancer organoid [3]; [6]
  Cell Viability: 23.2555%
Colon cancer organoid [3]; [7]
  Cell Viability: 96.7542%

## O=C(Nc1nc2cccc(-c3ccc(CN4CCS(=O)(=O)CC4)cc3)n2n1)C1CC1 [FILGOTINIB]
Colon cancer organoid [1]; [4]
  Cell Viability: 112.545%
Colon cancer organoid [1]; [5]
  Cell Viability: 86.0918%
Colon cancer organoid [1]; [6]
  Cell Viability: 106.088%
Colon cancer organoid [1]; [7]
  Cell Viability: 87.0807%
Colon cancer organoid [2]; [4]
  Cell Viability: 124.013%
Colon cancer organoid [2]; [5]
  Cell Viability: 111.823%
Colon cancer organoid [2]; [6]
  Cell Viability: 119.446%
Colon cancer organoid [2]; [7]
  Cell Viability: 102.655%
Colon cancer organoid [3]; [4]
  Cell Viability: 100.525%
Colon cancer organoid [3]; [5]
  Cell Viability: 92.8016%
Colon cancer organoid [3]; [6]
  Cell Viability: 121.161%
Colon cancer organoid [3]; [7]
  Cell Viability: 92.1067%

## CN(C(=O)c1ccccc1)c1cc(N(C)c2ccc3c(c2)CCc2ccc(C(=O)NCCN4CCOCC4)cc2C3=O)ccc1F [FM-743]
Colon cancer organoid [1]; [4]
  Cell Viability: 87.5807%
Colon cancer organoid [1]; [5]
  Cell Viability: 153.202%
Colon cancer organoid [1]; [6]
  Cell Viability: 104.972%
Colon cancer organoid [1]; [7]
  Cell Viability: 128.329%
Colon cancer organoid [2]; [4]
  Cell Viability: 83.789%
Colon cancer organoid [2]; [5]
  Cell Viability: 122.182%
Colon cancer organoid [2]; [6]
  Cell Viability: 115.906%
Colon cancer organoid [2]; [7]
  Cell Viability: 98.7995%
Colon cancer organoid [3]; [4]
  Cell Viability: 67.0526%
Colon cancer organoid [3]; [5]
  Cell Viability: 69.6878%
Colon cancer organoid [3]; [6]
  Cell Viability: 72.1659%
Colon cancer organoid [3]; [7]
  Cell Viability: 109.641%

## O=C(NCCN1CCOCC1)c1ccc2c(c1)C(=O)c1ccc(Nc3ccc(F)c(NC(=O)c4ccccc4)c3)cc1CC2 [FS-694]
Colon cancer organoid [1]; [4]
  Cell Viability: 66.004%
Colon cancer organoid [1]; [5]
  Cell Viability: 119.038%
Colon cancer organoid [1]; [6]
  Cell Viability: 94.4809%
Colon cancer organoid [1]; [7]
  Cell Viability: 79.2545%
Colon cancer organoid [2]; [4]
  Cell Viability: 102.563%
Colon cancer organoid [2]; [5]
  Cell Viability: 98.243%
Colon cancer organoid [2]; [6]
  Cell Viability: 144.079%
Colon cancer organoid [2]; [7]
  Cell Viability: 81.8914%
Colon cancer organoid [3]; [4]
  Cell Viability: 67.8661%
Colon cancer organoid [3]; [5]
  Cell Viability: 67.282%
Colon cancer organoid [3]; [6]
  Cell Viability: 66.9088%
Colon cancer organoid [3]; [7]
  Cell Viability: 83.7797%

## CC(C)(C)OC(=O)N1CCCC1CNC1CCC(c2cc(F)ccc2F)(S(=O)(=O)c2ccc(Cl)cc2)CC1 (stereo not drawn) [GSI-NC]
Colon cancer organoid [1]; [4]
  Cell Viability: 93.8933%
Colon cancer organoid [1]; [5]
  Cell Viability: 100.789%
Colon cancer organoid [1]; [6]
  Cell Viability: 108.621%
Colon cancer organoid [1]; [7]
  Cell Viability: 95.0953%
Colon cancer organoid [2]; [4]
  Cell Viability: 82.5384%
Colon cancer organoid [2]; [5]
  Cell Viability: 107.99%
Colon cancer organoid [2]; [6]
  Cell Viability: 97.33%
Colon cancer organoid [2]; [7]
  Cell Viability: 95.7632%
Colon cancer organoid [3]; [4]
  Cell Viability: 109.794%
Colon cancer organoid [3]; [5]
  Cell Viability: 188.651%
Colon cancer organoid [3]; [6]
  Cell Viability: 83.1857%
Colon cancer organoid [3]; [7]
  Cell Viability: 79.5795%

## CC(=O)Nc1c(F)cc(C(=O)N[C@H]2CC[C@H](O)CC2)cc1O[C@@H](C)c1ccccc1 [GSK046]
Colon cancer organoid [1]; [4]
  Cell Viability: 117.929%
Colon cancer organoid [1]; [5]
  Cell Viability: 118.66%
Colon cancer organoid [1]; [6]
  Cell Viability: 59.393%
Colon cancer organoid [1]; [7]
  Cell Viability: 129.379%
Colon cancer organoid [2]; [4]
  Cell Viability: 94.8329%
Colon cancer organoid [2]; [5]
  Cell Viability: 149.721%
Colon cancer organoid [2]; [6]
  Cell Viability: 98.5047%
Colon cancer organoid [2]; [7]
  Cell Viability: 138.141%
Colon cancer organoid [3]; [4]
  Cell Viability: 141.493%
Colon cancer organoid [3]; [5]
  Cell Viability: 157.689%
Colon cancer organoid [3]; [6]
  Cell Viability: 89.308%
Colon cancer organoid [3]; [7]
  Cell Viability: 140.24%
